In patent publication US10226452B2, “Benzoxazolone derivatives as acid ceramidase inhibitors, and their use as medicaments” (FONDAZIONE ISTITUTO ITALIANO DI TECNOLOGIA, priority 2014, dated 2019):

Target: human (hAC) acid ceramidase (Homo sapiens (Human), UniProt Q13510)
Assay: fluorescent-based in vitro assay on human acid ceramidase
Type: biochemical
Settings: hAC-enriched lysosomal lysate from HEK293 cells; fluorogenic probe 5 μM; pH 4.5
Source text: To evaluate the potency of the compounds towards acid ceramidase, a fluorescence-based in vitro assay previously described in literature (Bedia C et al., ChemBioChem, 2007, 8, 642-648) was implemented and optimized. This assay is based on a “fluorogenic probe” containing a coumarin group and a sphingoid base moiety (see figure below), which is not fluorescent in itself, but upon enzymatic cleavage by acid ceramidase followed by a chemical transformation liberates the fluorescent molecule umbelliferone (7-hydroxychromen-2-one). By quantifying the generation of umbelliferone using a fluorescence plate-reader, the level of enzymatic activity can be measured, whereby IC50 values of compounds that inhibit this activity can be generated.
Lysosomal lysate, enriched with acid ceramidase, was prepared from a cell line stably expressing human acid ceramidase. In the assay, the fluorogenic probe (or substrate) serves as a ceramide-analogue, which is recognized and hydrolyzed at the amide bond by acid ceramidase from the enriched lysate to yield the fatty acid and coumarinic aminodiol. By treating the solution with sodium periodate (NaIO4), the coumarinic aminodiol is subsequently oxidized into an aldehyde intermediate, which undergoes a β-elimination reaction to release the strongly fluorescent umbelliferone.
A lysosomal human acid ceramidase protein preparation was obtained from HEK293 cells stably expressing acid ceramidase suspended in 20 mM Tris HCl (pH 7.5) with 0.32 M sucrose. The cell solution was sonicated and centrifuged at 800×g for 15 min at 4° C. Supernatants were then centrifuged at 12,000×g for 30 min at 4° C. Pellets were re-suspended in PBS pH 7.4 and subjected to two freeze-thaw cycles at −80° C. The suspension was finally centrifuged at 105,000×g for 1 hour at 4° C. and protein concentration was measured in the supernatant with bicinchinonic-acid based protein assay. This human acid ceramidase-enriched preparation allowed us to further optimize the enzymatic assay and to use smaller amounts of lysate (2 μg/well) and substrate (5 μM).
The assay was performed in Optiplate 96-wells black plates, with each reaction well containing a mixture of 25 mM sodium acetate buffer pH 4.5 and a fixed amount of protein (2 μg) in a volume of 85 μL. After 30 mins of pre-incubation with test compounds (diluted 20× from DMSO stock solutions at different concentrations), the fluorogenic probe was added (diluted 20× from EtOH stock solution, final concentration 5 μM). After incubation for 3 hours at 37° C., the reactions were stopped with 50 μL of methanol and 100 μL of a 2.5 mg/mL NalO4 fresh solution in 100 mM Glycine/NaOH pH 10.6. The plate was incubated at 37° C. for 2 hours in the dark and fluorescence intensities were measured at excitation/emission wavelengths of 360/446 nm. Negative control samples consisted of the same incubation mixture in the absence of protein extracts. The IC50 values or percent of inhibition, at the indicated concentration, of selected compounds described in the invention are reported in Table 2.

human (hAC) acid ceramidase, sequence (Q13510 22-142): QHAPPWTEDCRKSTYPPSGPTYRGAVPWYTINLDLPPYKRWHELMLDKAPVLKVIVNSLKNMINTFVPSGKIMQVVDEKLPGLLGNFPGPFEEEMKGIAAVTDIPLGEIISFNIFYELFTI
human (hAC) acid ceramidase, sequence (Q13510 143-395): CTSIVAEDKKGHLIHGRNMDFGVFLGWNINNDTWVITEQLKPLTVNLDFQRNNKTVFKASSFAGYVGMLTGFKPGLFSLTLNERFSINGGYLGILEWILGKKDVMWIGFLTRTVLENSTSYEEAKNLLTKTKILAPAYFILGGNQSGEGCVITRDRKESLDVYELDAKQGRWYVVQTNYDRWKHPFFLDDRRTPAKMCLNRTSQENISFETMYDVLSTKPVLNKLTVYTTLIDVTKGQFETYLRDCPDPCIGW

SMILES | IC50
O=C(NCCCCc1ccccc1)n1c(=O)oc2ccccc21 [Example 1, 2-Oxo-N-(4-phenylbutyl)-1,3-benzoxazole-3-carboxamide] | 64 ± 7 nM
O=C(NCCCCc1ccccc1)n1c(=O)oc2ccc(F)cc21 [Example 2, 5-Fluoro-2-oxo-N-(4-phenylbutyl)-1,3-benzoxazole-3-carboxamide] | 56 ± 12 nM
O=C(NCCCCc1ccccc1)n1c(=O)oc2cc(F)ccc21 [Example 3, 6-Fluoro-2-oxo-N-(4-phenylbutyl)-1,3-benzoxazole-3-carboxamide] | 10 ± 7 nM
O=C(NCCCCc1ccccc1)n1c(=O)oc2ccc(Cl)cc21 [Example 4, 5-Chloro-2-oxo-N-(4-phenylbutyl)-1,3-benzoxazole-3-carboxamide] | 9 ± 7 nM
O=C(NCCCCc1ccccc1)n1c(=O)oc2cc(Cl)ccc21 [Example 5, 6-Chloro-2-oxo-N-(4-phenylbutyl)-1,3-benzoxazole-3-carboxamide] | 33 ± 4 nM
O=C(NCCCCc1ccccc1)n1c(=O)oc2ccc(Br)cc21 [Example 6, 5-Bromo-2-oxo-N-(4-phenylbutyl)-1,3-benzoxazole-3-carboxamide] | 22 ± 11 nM
Cc1ccc2oc(=O)n(C(=O)NCCCCc3ccccc3)c2c1 [Example 8, 5-Methyl-2-oxo-N-(4-phenylbutyl)-1,3-benzoxazole-3-carboxamide] | 117 ± 26 nM
Cc1ccc2c(c1)oc(=O)n2C(=O)NCCCCc1ccccc1 [Example 9, 6-Methyl-2-oxo-N-(4-phenylbutyl)-1,3-benzoxazole-3-carboxamide] | 66 ± 9 nM
COc1ccc2c(c1)oc(=O)n2C(=O)NCCCCc1ccccc1 [Example 10, 6-Methoxy-2-oxo-N-(4-phenylbutyl)-1,3-benzoxazole-3-carboxamide] | 52 ± 9 nM
O=C(NCCCCc1ccccc1)n1c(=O)oc2ccc([N+](=O)[O-])cc21 [Example 11, 5-Nitro-2-oxo-N-(4-phenylbutyl)-1,3-benzoxazole-3-carboxamide] | 3 ± 2 nM
O=C(NCCCCc1ccccc1)n1c(=O)oc2cc([N+](=O)[O-])ccc21 [Example 12, 6-Nitro-2-oxo-N-(4-phenylbutyl)-1,3-benzoxazole-3-carboxamide] | 3 ± 1 nM
O=C(NCCCCc1ccccc1)n1c(=O)oc2ccc(C(F)(F)F)cc21 [Example 13, 2-Oxo-N-(4-phenylbutyl)-5-(trifluoromethyl)-1,3-benzoxazole-3-carboxamide] | 11 ± 5 nM
O=C(NCCCCc1ccccc1)n1c(=O)oc2cc(C(F)(F)F)ccc21 [Example 14, 2-Oxo-N-(4-phenylbutyl)-6-(trifluoromethyl)-1,3-benzoxazole-3-carboxamide] | 20 ± 9 nM
N#Cc1ccc2oc(=O)n(C(=O)NCCCCc3ccccc3)c2c1 [Example 15, 5-Cyano-2-oxo-N-(4-phenylbutyl)-1,3-benzoxazole-3-carboxamide] | 11 nM
O=C(NCCCCc1ccccc1)n1c(=O)oc2cc(Cl)c(Cl)cc21 [Example 16, 5,6-Dichloro-2-oxo-N-(4-phenylbutyl)-1,3-benzoxazole-3-carboxamide] | 18 ± 8 nM
Cc1cccc2c1oc(=O)n2C(=O)NCCCCc1ccccc1 [Example 18, 7-Methyl-2-oxo-N-(4-phenylbutyl)-1,3-benzoxazole-3-carboxamide] | 23 ± 5 nM
O=C(NCCCCc1ccccc1)n1c(=O)oc2c(Br)cccc21 [Example 19, 7-Bromo-2-oxo-N-(4-phenylbutyl)-1,3-benzoxazole-3-carboxamide] | 18 ± 11 nM
O=C(NCCCCc1ccccc1)n1c(=O)oc2ccc(-c3ccccc3)cc21 [Example 20, 2-Oxo-5-phenyl-N-(4-phenylbutyl)-1,3-benzoxazole-3-carboxamide] | 22 nM

SMILES | IC50
COc1ccc(-c2ccc3oc(=O)n(C(=O)NCCCCc4ccccc4)c3c2)cc1 [Example 21, 5-(4-Methoxyphenyl)-2-oxo-N-(4-phenylbutyl)-1,3-benzoxazole-3-carboxamide] | 68 nM
O=C(NCCCCc1ccccc1)n1c(=O)oc2ccc(-c3ccc(F)cc3)cc21 [Example 22, 5-(4-Fluorophenyl)-2-oxo-N-(4-phenylbutyl)-1,3-benzoxazole-3-carboxamide] | 56 ± 14 nM
O=C(NCCCCc1ccccc1)n1c(=O)oc2cc(-c3ccccc3)ccc21 [Example 23, 2-Oxo-6-phenyl-N-(4-phenylbutyl)-1,3-benzoxazole-3-carboxamide] | 84 ± 35 nM
COc1ccc(-c2ccc3c(c2)oc(=O)n3C(=O)NCCCCc2ccccc2)cc1 [Example 24, 6-(4-Methoxyphenyl)-2-oxo-N-(4-phenylbutyl)-1,3-benzoxazole-3-carboxamide] | 67 ± 5 nM
O=C(NCCCCc1ccccc1)n1c(=O)oc2cccc(-c3ccccc3)c21 [Example 26, 2-Oxo-4-phenyl-N-(4-phenylbutyl)-1,3-benzoxazole-3-carboxamide] | 0.8 ± 0.1 nM
O=C(NCCCCc1ccccc1)n1c(=O)oc2c(-c3ccccc3)cccc21 [Example 27, 2-Oxo-7-phenyl-N-(4-phenylbutyl)-1,3-benzoxazole-3-carboxamide] | 91 ± 10 nM
O=C(NCCCCc1ccccc1)n1c(=O)oc2cc(O)ccc21 [Example 35, 6-Hydroxy-2-oxo-N-(4-phenylbutyl)-1,3-benzoxazole-3-carboxamide] | 152 ± 87 nM
CCC(=O)c1ccc2c(c1)oc(=O)n2C(=O)NCCCCc1ccccc1 [Example 36, 2-Oxo-N-(4-phenylbutyl)-6-propanoyl-1,3-benzoxazole-3-carboxamide] | 16 ± 14 nM
O=C(c1ccccc1)c1ccc2c(c1)oc(=O)n2C(=O)NCCCCc1ccccc1 [Example 37, 6-Benzoyl-2-oxo-N-(4-phenylbutyl)-1,3-benzoxazole-3-carboxamide] | 29 ± 1 nM
O=C(c1ccc(Cl)cc1)c1ccc2c(c1)oc(=O)n2C(=O)NCCCCc1ccccc1 [Example 38, 6-(4-Chlorobenzoyl)-2-oxo-N-(4-phenylbutyl)-1,3-benzoxazole-3-carboxamide] | 14 ± 4 nM
O=C(NCCCCC1CCCCC1)n1c(=O)oc2ccccc21 [Example 39, N-(4-Cyclohexylbutyl)-2-oxo-1,3-benzoxazole-3-carboxamide] | 62 ± 44 nM
CCC[C@H]1CC[C@H](CNC(=O)n2c(=O)oc3ccccc32)CC1 [Example 40, 2-Oxo-N-[(4-propylcyclohexyl)methyl]-1,3-benzoxazole-3-carboxamide] | 135 ± 56 nM
CCCc1ccc(CNC(=O)n2c(=O)oc3ccccc32)cc1 [Example 41, 2-Oxo-N-[(4-propylphenyl)methyl]-1,3-benzoxazole-3-carboxamide] | 19 ± 2 nM
CCCCCCCCNC(=O)n1c(=O)oc2ccccc21 [Example 42, N-Octyl-2-oxo-1,3-benzoxazole-3-carboxamide] | 34 ± 14 nM
O=C(NCCCc1ccccc1)n1c(=O)oc2ccccc21 [Example 43, 2-Oxo-N-(3-phenylpropyl)-1,3-benzoxazole-3-carboxamide] | 55 ± 6 nM
O=C(NCCCCc1cccs1)n1c(=O)oc2ccccc21 [Example 44, 2-Oxo-N-[4-(2-thienyl)butyl]-1,3-benzoxazole-3-carboxamide] | 99 ± 58 nM
COc1ccc(CCCCNC(=O)n2c(=O)oc3ccccc32)cc1 [Example 45, N-[4-(4-Methoxyphenyl)butyl]-2-oxo-1,3-benzoxazole-3-carboxamide] | 63 ± 22 nM
O=C(NCCCCc1ccc(F)cc1)n1c(=O)oc2ccccc21 [Example 46, N-[4-(4-Fluorophenyl)butyl]-2-oxo-1,3-benzoxazole-3-carboxamide] | 75 nM
